Test results reported in patent publication US20240051985A1, “METTL3 MODULATORS” (ACCENT THERAPEUTICS, INC., priority 2020, published 2024).

Assays:
METTL3/METTL14 = METTL3/METTL14 (Homo sapiens, UniProt Q86U44); assay: METTL3-14 standard enzyme assay (3H-SAM flashplate); conditions: METTL3 biochemical assay
Method in brief: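 Radiometric methyltransferase read-out: after quenching with excess unlabelled SAM (15 μM), biotinylated RNA was captured on streptavidin flashplates (2 h, 25° C) and counted. Reactions contained 2.5 nM enzyme (5 min preincubation), 100 nM RNA and 100 nM 3H-SAM, ran 30 min in HEPES pH 7.5 buffer with KCl, MgCl2, DTT.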

[1] = system: m^6A in cellular mRNA of MOLM-13 cells; assay: m^6A-mRNA LC-MS/MS assay (m^6A cellular assay); format: cell-based; conditions: Homo sapiens, Table 3, 24 hours
Experimental: 5×10^6 MOLM-13 (DSMZ) cells were seeded into 10 cm dishes in RPMI 1640 media containing 10% fetal bovine serum and placed in a humidified tissue culture incubator at 37° C. overnight. Compounds were resuspended in 100% DMSO and dosed into each dish at a fixed concentration to comprise an 8-point dose response with a 4-fold serial dilution ranging from 25 μM to 1.5 nM in 0.25% DMSO final and allowed to incubate for 24 hours in a humidified tissue culture incubator at 37° C. Cells were harvested by centrifugation followed by mRNA extraction using DIRECT Dynabeads mRNA DIRECT kit (Life Technologies). mRNA was quantified on NanoDrop spectrophotometer (Thermo Fisher Scientific) and digested into single nucleosides using Nucleoside Digestion Mix (New England Biolabs). Nucleosides are quantified with retention time on a BEH C18 column (Waters) and the nucleoside-to-base ion mass transition of 282.1-150.1 (m^6A) and 268-136 (A) on an API 6500+ triple quadrupole mass spectrometer. Quantification is performed in comparison with the standard curve, obtained from pure nucleoside standards (Selleck Chemicals) running with the same batch of samples. Percentage m^6A in cellular mRNA is calculated as 100*(m^6A/A).

PRMT5-MEP50 = PRMT5-MEP50 (Homo sapiens, UniProt O14744); assay: PRMT5 assay (3H-SAM flashplate); conditions: PRMT5 biochemical assay
Method in brief: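 Radiometric methyl-transfer read-out: 3H-methyl transferred to a 3′-biotinylated, acetylated H4 peptide substrate (100 nM) from 3H-SAM (250 nM), captured on streptavidin scintillation plates. Enzyme complex 2.5 nM, pH 8.0 Tris buffer with DTT and Tween, compound preincubation 5 min, 60 min reaction stopped with excess unlabeled SAM.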

FLT3-ITD = target: T1, FLT3-ITD (Homo sapiens, UniProt P36888); assay: FLT3-ITD LanthaScreen assay; format: biochemical; conditions: Table 4
T1 sequence (P36888 1-993): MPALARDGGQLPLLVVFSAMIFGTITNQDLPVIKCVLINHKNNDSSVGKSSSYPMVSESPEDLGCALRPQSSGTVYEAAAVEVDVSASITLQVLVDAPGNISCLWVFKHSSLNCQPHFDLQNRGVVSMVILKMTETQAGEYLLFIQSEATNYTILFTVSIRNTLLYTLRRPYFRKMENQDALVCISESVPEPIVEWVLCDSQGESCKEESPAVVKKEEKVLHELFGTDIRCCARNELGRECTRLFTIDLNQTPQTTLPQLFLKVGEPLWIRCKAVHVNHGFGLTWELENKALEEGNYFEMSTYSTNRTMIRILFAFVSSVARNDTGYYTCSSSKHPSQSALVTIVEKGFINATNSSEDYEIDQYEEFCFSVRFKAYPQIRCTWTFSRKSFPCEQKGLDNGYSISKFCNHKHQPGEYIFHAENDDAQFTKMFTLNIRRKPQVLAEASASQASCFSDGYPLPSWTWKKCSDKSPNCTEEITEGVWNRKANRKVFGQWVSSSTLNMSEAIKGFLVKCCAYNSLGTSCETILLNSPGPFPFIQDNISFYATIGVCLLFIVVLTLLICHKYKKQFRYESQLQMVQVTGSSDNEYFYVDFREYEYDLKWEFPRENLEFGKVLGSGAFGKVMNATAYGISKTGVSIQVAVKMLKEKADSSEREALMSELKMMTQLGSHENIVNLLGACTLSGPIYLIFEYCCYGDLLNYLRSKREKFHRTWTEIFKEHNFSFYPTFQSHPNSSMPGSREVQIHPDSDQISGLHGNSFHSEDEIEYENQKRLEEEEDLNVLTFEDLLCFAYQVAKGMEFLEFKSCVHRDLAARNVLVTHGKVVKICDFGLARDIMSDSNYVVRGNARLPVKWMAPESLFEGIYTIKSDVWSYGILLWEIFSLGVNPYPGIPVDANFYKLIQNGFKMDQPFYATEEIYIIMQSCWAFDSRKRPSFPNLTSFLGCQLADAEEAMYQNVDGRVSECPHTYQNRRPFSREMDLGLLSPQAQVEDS
Method in brief: (§1)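 Buffer 50 mM Hepes pH 7.5, 2 mM DTT, 10 mM MgCl2, 0.01% Tween, 0.01% BSA; FLT3 ([…].) or FLT3-ITD ([…].) preincubated 10 min with compound. Fluorescein-poly GT (200 nM) and ATP (57 μM) added, 40 min at ambient temperature; stopped with EDTA and Tb-anti-pTyr pY20, TR-FRET read 495/520 nm.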

FLT3 = target: T2, FLT3 (Homo sapiens, UniProt P36888); assay: FLT3 LanthaScreen assay; format: biochemical; conditions: Table 4
T2 sequence (P36888 27-993): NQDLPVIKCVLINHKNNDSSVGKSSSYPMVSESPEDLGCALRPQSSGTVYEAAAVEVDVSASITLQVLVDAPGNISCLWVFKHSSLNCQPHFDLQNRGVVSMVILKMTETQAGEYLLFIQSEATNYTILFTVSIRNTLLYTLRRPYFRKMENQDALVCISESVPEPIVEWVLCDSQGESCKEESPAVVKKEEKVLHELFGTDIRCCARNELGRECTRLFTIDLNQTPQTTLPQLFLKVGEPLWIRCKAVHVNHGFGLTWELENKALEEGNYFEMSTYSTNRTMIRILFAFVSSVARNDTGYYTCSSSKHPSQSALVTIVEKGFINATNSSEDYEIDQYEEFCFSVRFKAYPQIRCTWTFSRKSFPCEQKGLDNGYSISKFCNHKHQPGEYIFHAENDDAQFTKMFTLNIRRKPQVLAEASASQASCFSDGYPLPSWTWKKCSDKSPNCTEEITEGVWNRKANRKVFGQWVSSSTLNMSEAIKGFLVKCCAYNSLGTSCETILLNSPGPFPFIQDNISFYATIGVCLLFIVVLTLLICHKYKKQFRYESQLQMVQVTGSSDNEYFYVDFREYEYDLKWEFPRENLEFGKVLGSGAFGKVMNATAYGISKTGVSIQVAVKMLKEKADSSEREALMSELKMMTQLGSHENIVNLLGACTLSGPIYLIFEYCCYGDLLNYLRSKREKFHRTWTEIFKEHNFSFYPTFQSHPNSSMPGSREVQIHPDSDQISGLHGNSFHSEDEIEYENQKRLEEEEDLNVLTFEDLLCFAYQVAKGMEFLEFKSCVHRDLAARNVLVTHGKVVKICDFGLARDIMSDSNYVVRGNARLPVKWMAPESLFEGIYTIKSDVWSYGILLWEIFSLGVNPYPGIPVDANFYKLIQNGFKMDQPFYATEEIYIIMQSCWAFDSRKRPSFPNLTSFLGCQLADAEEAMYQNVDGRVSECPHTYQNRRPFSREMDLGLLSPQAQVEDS
Method in brief: as §1

Chain of PRMT5-MEP50 (O14744 whole entry): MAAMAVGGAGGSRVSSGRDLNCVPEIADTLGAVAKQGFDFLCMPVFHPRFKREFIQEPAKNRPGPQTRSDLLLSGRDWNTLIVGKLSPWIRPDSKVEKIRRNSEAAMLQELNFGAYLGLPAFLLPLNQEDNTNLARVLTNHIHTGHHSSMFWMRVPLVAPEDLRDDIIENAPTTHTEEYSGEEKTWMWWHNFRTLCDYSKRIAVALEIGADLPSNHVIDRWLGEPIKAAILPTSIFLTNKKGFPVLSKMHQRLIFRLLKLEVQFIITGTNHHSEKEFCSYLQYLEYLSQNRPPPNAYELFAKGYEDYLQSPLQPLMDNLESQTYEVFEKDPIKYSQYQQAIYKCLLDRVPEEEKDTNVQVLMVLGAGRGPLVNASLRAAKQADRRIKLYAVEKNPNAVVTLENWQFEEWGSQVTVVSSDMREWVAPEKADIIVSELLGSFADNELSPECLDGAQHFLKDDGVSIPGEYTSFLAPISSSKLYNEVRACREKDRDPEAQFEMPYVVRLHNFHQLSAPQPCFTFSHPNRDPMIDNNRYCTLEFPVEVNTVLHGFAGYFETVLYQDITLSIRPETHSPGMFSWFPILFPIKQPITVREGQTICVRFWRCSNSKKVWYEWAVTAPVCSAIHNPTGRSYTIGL
Chain of PRMT5-MEP50 (Q9BQA1 whole entry partner): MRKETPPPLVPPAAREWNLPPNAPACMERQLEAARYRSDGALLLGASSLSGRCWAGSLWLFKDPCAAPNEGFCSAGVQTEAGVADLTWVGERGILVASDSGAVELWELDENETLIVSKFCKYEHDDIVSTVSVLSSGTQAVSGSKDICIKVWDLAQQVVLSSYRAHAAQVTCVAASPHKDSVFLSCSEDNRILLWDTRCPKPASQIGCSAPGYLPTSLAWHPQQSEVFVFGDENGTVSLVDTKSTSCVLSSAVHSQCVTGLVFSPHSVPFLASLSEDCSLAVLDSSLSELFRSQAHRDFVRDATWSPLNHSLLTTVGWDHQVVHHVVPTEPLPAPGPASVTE
Chain of METTL3/METTL14 (Q86U44 whole entry, species assumed): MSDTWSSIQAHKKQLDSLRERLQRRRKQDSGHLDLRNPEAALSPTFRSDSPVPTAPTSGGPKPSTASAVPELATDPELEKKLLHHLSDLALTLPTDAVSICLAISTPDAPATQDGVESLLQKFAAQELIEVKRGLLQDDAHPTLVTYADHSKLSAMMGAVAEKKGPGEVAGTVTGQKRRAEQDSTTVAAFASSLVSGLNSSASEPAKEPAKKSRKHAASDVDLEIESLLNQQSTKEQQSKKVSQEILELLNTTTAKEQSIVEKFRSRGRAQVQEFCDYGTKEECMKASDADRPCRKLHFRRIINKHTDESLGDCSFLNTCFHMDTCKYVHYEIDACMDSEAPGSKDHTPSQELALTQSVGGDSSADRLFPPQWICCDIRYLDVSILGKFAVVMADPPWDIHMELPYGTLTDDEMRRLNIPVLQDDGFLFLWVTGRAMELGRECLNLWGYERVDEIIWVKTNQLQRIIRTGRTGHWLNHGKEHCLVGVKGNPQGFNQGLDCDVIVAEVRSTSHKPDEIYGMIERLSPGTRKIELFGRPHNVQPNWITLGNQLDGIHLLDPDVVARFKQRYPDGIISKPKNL
Chain of METTL3/METTL14 (Q9HCE5 whole entry partner, species assumed): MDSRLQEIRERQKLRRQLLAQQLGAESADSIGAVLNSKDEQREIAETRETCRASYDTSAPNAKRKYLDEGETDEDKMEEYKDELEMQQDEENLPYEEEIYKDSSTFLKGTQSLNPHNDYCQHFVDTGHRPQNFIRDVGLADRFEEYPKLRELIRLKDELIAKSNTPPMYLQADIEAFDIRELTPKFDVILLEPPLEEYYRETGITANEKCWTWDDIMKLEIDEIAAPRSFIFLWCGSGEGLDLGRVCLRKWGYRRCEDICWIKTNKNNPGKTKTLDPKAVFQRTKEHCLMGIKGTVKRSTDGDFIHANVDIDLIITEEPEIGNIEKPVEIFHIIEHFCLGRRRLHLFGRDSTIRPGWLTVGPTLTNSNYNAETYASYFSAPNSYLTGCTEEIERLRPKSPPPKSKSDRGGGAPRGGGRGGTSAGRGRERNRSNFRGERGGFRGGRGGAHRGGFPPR

Structure (SMILES)	IC50 (METTL3/METTL14; Table 3)	IC50 [1]	IC50 (PRMT5-MEP50; Table 3)	IC50 (METTL3/METTL14; Table 4)	IC50 (FLT3-ITD)	IC50 (FLT3)	IC50 (PRMT5-MEP50; Table 4)
CNc1ccc2ccc(NC(=O)[C@H]3O[C@@H](n4cc(-c5ccn(C)n5)c5c(N)ncnc54)[C@H](O)[C@@H]3O)cc2n1 [Compound I-32, (2S,3S,4R,5R)-5-[4-amino-5-(1-methyl-1H-pyrazol-3-yl)-7H-pyrrolo[2,3-d]pyrimidin-7-yl]-3,4-dihydroxy-N-[2-(methylamino)quinolin-7-yl]oxolane-2-carboxamide]	< 10 nM	< 1000 nM	< 10 nM				
Cn1ccc(-c2cn([C@@H]3O[C@H](C(=O)Nc4ccc5ccc(N6CCC6)nc5c4)[C@@H](O)[C@H]3O)c3ncnc(N)c23)n1 [Compound I-10, (2S,3S,4R,5R)-5-[4-amino-5-(1-methyl-1H-pyrazol-3-yl)-7H-pyrrolo[2,3-d]pyrimidin-7-yl]-N-[2-(azetidin-1-yl)quinolin-7-yl]-3,4-dihydroxyoxolane-2-carboxamide]	< 10 nM	< 1000 nM	10 to 100 nM				
CN1CCC(NC(=O)[C@H]2O[C@@H](n3cc(C4CCCC4)c4c(N)ncnc43)[C@H](O)[C@@H]2O)CC1 [Compound I-56, (2S,3S,4R,5R)-5-(4-amino-5-cyclopentyl-7H-pyrrolo[2,3-d]pyrimidin-7-yl)-3,4-dihydroxy-N-(1-methylpiperidin-4-yl)tetrahydrofuran-2-carboxamide]				100 to 1000 nM	≥ 1000 nM	≥ 1000 nM	100 to 1000 nM
C[C@H]1C[C@H](NC(=O)[C@H]2O[C@@H](n3cc(-c4ccn(C)n4)c4c(N)ncnc43)[C@H](O)[C@@H]2O)CCN1 [Compound I-190]				≥ 1000 nM	≥ 1000 nM	≥ 1000 nM	≥ 1000 nM
C[C@@H]1C[C@@H](NC(=O)[C@H]2O[C@@H](n3cc(-c4ccn(C)n4)c4c(N)ncnc43)[C@H](O)[C@@H]2O)CCN1C [Compound I-233]				100 to 1000 nM	≥ 1000 nM	≥ 1000 nM	100 to 1000 nM
CC(O)CCN(C(=O)[C@H]1O[C@@H](n2cc(-c3ccn(C)n3)c3c(N)ncnc32)[C@H](O)[C@@H]1O)C1CCN(C)CC1 (some centres unmarked) [Compound I-148]				≥ 1000 nM	≥ 1000 nM	≥ 1000 nM	10 to 100 nM
CNc1ccc2ccc(NC(=O)[C@H]3O[C@@H](n4ccc5c(N)ncnc54)[C@@H](F)[C@@H]3O)cc2n1 [Compound I-62]				100 to 1000 nM	≥ 1000 nM	≥ 1000 nM	< 10 nM
